pEC50: −log10 of the molar value.
What was measured:
[1] = test system: LPS induced zebrafish sepsis model; assay: Survival in LPS induced zebrafish sepsis model; assay type: in vivo; conditions: 24 h
Procedure: An LPS induced zebrafish sepsis model which mimics the hallmarks of human sepsis was developed (Philip et al., 2017). Zebrafish show varied susceptibility and responsiveness to LPS from different bacterial strains. Exposure of zebrafish larvae at 3 days post-fertilization (dpf) to two types of LPS (LPS from Escherichia coli 0111:B4 (Sigma) at 100 μg/ml for 5-6 hrs; or LPS from Salmonella at 27 μg/ml for 24 hrs) were both effective in inducing tail fin swelling, increased ROS production, increased vascular leakage and increased mortality.
Survival analyses for zebrafish (wildtype) exposed to various concentrations of LPS (Escherichia coli 0111:B4; Sigma) was performed. 3 dpf larvae were exposed to LPS by immersion technique. Larvae were treated with 10, 25, 50, 125, 250, 500, 1000, 2500, 5000 or 10000 nM UNC0642 along with 100 μg/ml LPS (LPS was dissolved in eggwater), by static immersion at 28.5° C. for 24 h in a total volume of 2 mL per treatment. Control larvae were exposed to egg water. Survival numbers were recorded and EC50s calculated.
3 dpf larvae were exposed to LPS by immersion technique. […] Control larvae were exposed to egg water. Survival numbers were recorded and EC50s calculated. The percentage (%) of embryos showing vascular leakage was also recorded and 1050s calculated.

[2] = test system: Beas2b human airway epithelial cells; assay: TNFα-induced ROS production (DCF assay) in beas2b cells; assay type: cell-based; conditions: TNFα 10 ng/mL, 24 hr
Procedure: Beas2b human airway epithelial cells were grown to 70% confluency. Cells were treated with TNFα (10 ng/mL) or an equal volume of nuclease-free water in the presence of 0, 0.25, 2.5, or 25 nM of UNC0642. Cell lysates were collected in 1×PBS after 24 hr and freeze-thawed twice to lyse the cells completely. In vitro ROS was measured using OxiSelect In Vitro ROS/RNS Assay Kit with DCF standard. ROS (nM) was calculated from the standard curve and values were normalized by total amount of protein (as measured by Bradford assay). Values are expressed as mean+/−SEM (average of two experimental replicates).

[3] = test system: cellular junction protein transcript levels; assay: Quantitative RT-PCR of cellular junction proteins in zebrafish sepsis model; assay type: in vivo; conditions: 3 dpf larvae, LPS 27 μg/ml (Salmonella) + 1 μM UNC0642, 24 h
From the text: (§1) Quantitative reverse transcription polymerase chain reaction (RT-PCR) was used to assess relative expression of cytokines (an average of 3 trials, each trial with a pool of 20 larvae/treatment) and cellular junction proteins (an average of 3 trials, each trial with a pool of 20 larvae/treatment), using elongation factor 1 a (EF1a) as the housekeeping gene control. […] UNC0642 reverses LPS induced reduction in the transcript levels of cellular junction proteins, namely occludin a, occludin b and ZO-1. UNC0642 also upregulates cellular junction protein transcript levels of occludin b, claudin 5a, claudin 5b and claudin 2, potentially improving vascular stability.
(§2) RNA extraction and cDNA synthesis. Wildtype zebrafish larvae (3 dpf) were exposed to Vehicle, LPS (27 μg/ml; LPS from Salmonella) or LPS+1 μM UNC0642 by static immersion for 24 h. Total RNA was extracted from these larvae (pool of 20 larvae/treatment) using the RNeasy extraction kit (Qiagen™, Mississauga, Ontario, Canada) and treated with DNase. The concentration of total RNA was determined spectrophotometrically at 260/280 nm using a NanoDrop™ spectrophotometer. […]
(§3) PCR conditions. […] The primers are not listed, since suitable primers will be readily apparent to the skilled person.

[4] = test system: HUVEC monolayer; assay: Trans-endothelial electrical resistance (TEER) across HUVEC monolayer; assay type: cell-based, human; conditions: LPS 1 μg/ml + UNC0642 2.5 nM, 24 h post treatment
Procedure: To determine the functional significance of G9a inhibition in human cells, solute permeability and electrical resistance across a confluent HUVEC monolayer was assessed. For both experiments, HUVEC were seeded at 1×10^6 cells/ml on Matrigel™ coated 3-μm pore size transwell inserts in 24-well plates from BD Discovery Labware™ (catalog number 354575) and grown to confluency. The cells were then treated with either the vehicle, LPS (1 μg/ml) or LPS (1 μg/ml)+UNC0642 (2.5 nM).
Assessment of trans-endothelial electrical resistance (TEER): At 24 h post treatment, trans endothelial electrical resistance across the HUVEC monolayer was measured using the Endohm-12 (WPI, Florida). UNC0642 improves transendothelial electrical resistance (TEER) which is also an indicator of vessel integrity and stability. (FIG. 11, Panel B)

[5] = test system: H3K9me2 in venous endothelial cell nuclei; assay: H3K9me2 immunofluorescence in zebrafish larvae; assay type: in vivo; conditions: LPS 100 μg/ml + 1 μM UNC0642, 5 h
Procedure: 3 dpf Tg eGFP) larvae were exposed to Vehicle, LPS (100 μg/ml) or LPS+1 μM UNC0642 by static immersion for 5 h at 28.5° C. Embryos were fixed overnight at 4° C. in 2% PFA in PBST (PBS+0.1% Tween 20). Embryos were then washed 4×5 min in PBST at room temperature (RT) and permeabilized for 30 min at RT in PBST+0.5% TritonX-100. Embryos were then blocked in PBST+0.1% TritonX-100+10% NGS+1% BSA for 2 h at RT. Embryos were incubated with primary antibodies (Mouse monoclonal (mAbcam 1220) to Histone H3 (di-methyl K9) in blocking solution (1:200) overnight at 4° C. Embryos were then washed 6×20 min in PBST at RT and then incubated with the secondary antibody (Goat anti-mouse IgG Alexa fluor 647; 1:1000) in blocking solution for 2 h at RT. Embryos were finally washed 3×10 min in PBST at RT. Images were taken with a Zeiss Confocal Microscope.

[6] = test system: IL-1, IL-6, TNFα and IL811 transcript levels; assay: Quantitative RT-PCR of pro-inflammatory cytokines in zebrafish sepsis model; assay type: in vivo; conditions: 3 dpf larvae, LPS 27 μg/ml (Salmonella) + 1 μM UNC0642, 24 h
From the text: as §1, §2, §3

## COc1cc2c(NC3CCN(C(C)C)CC3)nc(N3CCC(F)(F)CC3)nc2cc1OCCCN1CCCC1 [UNC0642, 2-(4,4-Difluoropiperidin-1-yl)-6-methoxy-N-[1-(propan-2-yl)piperidin-4-yl]-7-(3-(pyrrolidin-1-yl)propoxy]quinazolin-4-amine]
[1]; Escherichia coli, in Danio rerio, read-out: EC50 for improved survival of septic zebrafish larvae
  pEC50: 6.10
[1]; comparison of UNC0642 and A366, zebrafish larvae, 27 μg/ml LPS
  Rescue of sepsis-associated mortality: able to rescue
[2]
  TNFα-induced increased ROS production: significantly lowered
[3]
  LPS induced reduction in transcript levels of occludin a, occludin b and ZO-1: reverses
  Transcript levels of occludin b, claudin 5a, claudin 5b and claudin 2: upregulates
[4]
  Transendothelial electrical resistance (TEER): improves
[5]
  LPS induced increased H3K9me in venous endothelial cell nuclei: rescues LPS induced increased H3K9me
[6]
  LPS induced increases in transcript levels of pro-inflammatory cytokines IL-1, IL-6, TNFα and IL811: significantly mitigates

— patent US11998549B2, “Methods of treating a vascular leakage-associated disease or disorder” (UNITY HEALTH TORONTO, priority 2019, dated 2024)
